{
  "source": "patent US20040143461A1",
  "about": "“Generating, viewing, interpreting, and utilizing a quantitative database of metabolites” (Lipomics Technologies, Inc., priority 2001, published 2004)",
  "key": {"[1]": {"assay": "Body weight, glycemia, insulin and hepatic steatosis in rosiglitazone-treated (NZO×NON)F1 male mice", "type": "in vivo, mouse"}, "[2]": {"conditions": "humans; cited from earlier work"}, "[3]": {"system": "heart lipid metabolome", "method": "(§1) Mouse tissue and plasma samples were a generous donation to Lipomics Technologies from Dr. Edward Leiter of the Jackson Laboratory (Bar Harbor, Me.). Samples included the plasma, heart, liver and inguinal adipose of mice treated with pharmaceuticals or their corresponding controls.\n(§2) In both studies, five treated and five control mice were used. Following the treatments and the killing of the mice, tissues and plasma were taken, chilled to −80° C. and shipped to the analysis laboratory at Lipomics Technologies in a frozen state.\n(§3) For the analysis of liver and heart tissues, 25 mg of tissue were placed in a ground glass homogenizer and internal standards were added. The internal standards for use in the analyses of these tissues may take many forms, but in this instance consisted of: 4.75 μg of N-pentadecenoyl-D-erythro-sphingosylphorylcholine; 74.78 μg of 1,2 diheptadecanoylphosphatidylcholine; 33.57 μg of 1,2-diheptadecenoylphosphatidylserine (for phosphatidylserine); 24.13 μg of 1,2-diheptadecenoylphosphatidylethanolamine; 13.38 μg of 1,1′,2,2′-tetraheptadecaenoyl cardiolipin (for cardiolipin); 1.12 μg of pentadecaenoic acid; 27.82 μg of triheptadecaenoic acid; 1.56 μg of cholesteryl heptadecanoate; and 27.70 μg of stigmasterol.\n(§4) The solution mixture consisting of sample, fluid extractant, and internal standards was homogenized by twelve strokes with a ground-glass homogenizer. Following homogenization, 1.8 ml of 0.01 M potassium chloride was added, and the solution was vigorously mixed. The organic fraction containing the lipids and the internal standards was separated from the polar fraction of the mixture by centrifugation. The lipid extract was removed from the mixture and concentrated under a stream of nitrogen in preparation for lipid class separation.\n(§5) The separation of lipid classes was performed by preparative thin-layer chromatography (TLC), essentially as previously described (Watkins et al., Lipids 36:247-254, 2001). To remove any residual metal or other damaging contaminants on the TLC plates, each plate was washed prior to use. Washing the plates is a three-step process that involves impregnating each plate with ethylenediamine tetraacetic acid (EDTA) and rinsing the plates once with methanol and once with chloroform. Each plate is first impregnated with 1 mM EDTA, pH 5.5, by ascending development using the method of Ruiz (J. Lipid Res. 38, 1482-1489, 1997). After each plate was completely developed, it was dried in air overnight. Once dry, each plate was developed in methanol, dried, and developed in chloroform in the same direction as the development with EDTA. The washed plates were then dried in air. Just prior to use, each plate was activated by heating to 110° C. for 10 minutes.\n(§6) To prepare the TLC chamber for chromatography, Whatman (Clifton, N.J.) filter paper was cut into 20×80-cm strips and wrapped around the inside wall of a 30×60×10-cm glass development chamber. One hundred milliliters of the appropriate mobile phase was added to the chamber, and the chambers were sealed and allowed to equilibrate. Chambers were considered equilibrated when the solvent front had completely ascended the filter paper. The mobile phase employed for the separation of phospholipid classes (lyso-phospholipids, sphingomyelin, phosphatidylcholine, phosphatidylserine, phosphatidylethanolamine and cardiolipin) was a modification of the solvent system described by Holub and Skeaf (“Nutritional regulation of cellular phosphatidylinositol,” in Meth. Enzym., ed. Conn (Academic Press, Inc., Orlando), pp. 234-243, 1987) consisting of chloroform/methanol/acetic acid/water (100:67:7:4, by vol).\n(§7) For the separation of neutral lipid classes (free fatty acids, free sterols, triacylglycerides and cholesterol esters), a solvent system consisting of petroleum ether/diethyl ether/acetic acid (80:20:1, by vol) was used (Mangold, Thin Layer Chromatography— A Laboratory Handbook (Springer-Verlag, New York), 1969)."}, "[4]": {"system": "liver lipid metabolome", "conditions": "treated mice", "method": "as §1, §2, §3, §4, §5, §6, §7"}, "[5]": {"system": "inguinal adipose lipid metabolome", "method": "as §1, §2\nThe lipids from plasma and tissues were extracted in the presence of authentic internal standards by the method of Folch et al. (J. Biol. Chem. 226, 497-509, 1957) by homogenization in a fluid extractant consisting of chloroform:methanol (2:1 vol:vol). Plasma (200 μl), or 10 mg inguinal adipose tissue was used for each analysis. For each sample, an appropriate mass of internal standard was added. The internal standard compounds chosen may take many forms, but in one specific example the internal standards added to each plasma sample were: 1.75 μg of heptadecanoic 1-heptadecanoyl-2-lyso-phosphatidycholine (for lysophospholipids), 2.25 micrograms of N-pentadecenoyl-D-erythro-sphingosylphorylcholine (for sphingomyelin), 39.93 micrograms of 1,2 diheptadecanoylphosphatidylcholine (for phosphatidylcholine), 0.93 micrograms of 1,2-diheptadecenoylphosphatidylethanolamine (for phosphatidylethanolamine), 2.09 micrograms of pentadecaenoic acid (for free fatty acids), 32.93 micrograms of triheptadecaenoic acid (for triacylglycerides), 27.27 micrograms of cholesteryl heptadecanoate (for cholesterol esters) and 38.03 micrograms of stigmasterol (for free sterols).\nas §4, §5\nTo prepare the TLC chamber for chromatography, Whatman (Clifton, N.J.) filter paper was cut into 20×80-cm strips and wrapped around the inside wall of a 30×60×10-cm glass development chamber. One hundred milliliters of the appropriate mobile phase was added to the chamber, and the chambers were sealed and allowed to equilibrate. Chambers were considered equilibrated when the solvent front had completely ascended the filter paper."}, "[6]": {"system": "plasma lipids", "assay": "Lipomic assessment of CL316,243-treated NZO mice (trial 2), targeting graph versus rosiglitazone", "type": "in vivo, mouse", "source_text": "In a targeting display, quantitative metabolite data is compared from two samples that have been subjected to different treatments, for instance treatment with two different drugs or a drug and a test compound. The percentage or absolute changes (versus the standard sample) in the measured metabolites are plotted against each other on a Cartesian graph. This visual system facilitates the comparison of the global and individual metabolic effects of the two conditions being examined. If the two treatments (e.g., two drug treatments) affect the biological system in metabolically similar ways, the data points will fall along a line with a slope of 1, running through the origin (from the lower left to the upper right quadrant, in other words). Outlier data points, where one treatment or the other has a different effect on a metabolite, will lie in the upper left or lower right quadrants, and are therefore easily identified. […] The further off the “equivalent” slope a data point is, the greater the magnitude of differential effect that is being illustrated.\nThe metabolites found in the lower left and the upper right quadrants of the scatter plot (especially those where the X and Y values are similar) represent those likely affected by similar molecular mechanisms. […]"}, "[7]": {"conditions": "amount in parentheses after the % greater"}, "[8]": {"conditions": "treated vs control mice, FIG. 5"}},
  "note": "Where two headings read alike, the source gives them in different places.",
  "data": [
    {"smiles": "CN(CCOc1ccc(CC2SC(=O)NC2=O)cc1)c1ccccn1", "note": "(stereo not drawn) [rosiglitazone]", "values": [
      {"measurement": "body weight", "setting": "[1]; markedly-obese (NZO×NON)F1 male mice", "value": "increase in body weight"},
      {"measurement": "hepatic steatosis", "setting": "[1]; treated animals", "value": "severe hepatic steatosis"},
      {"measurement": "weight gain", "setting": "[2]", "value": "often accompanied by weight gain"},
      {"measurement": "14:0 fatty acid associated with heart sphingomyelin, more than the control sample", "setting": "[3]; FIG. 5 heat map, test sample vs control sample", "value": 80, "unit": "%"},
      {"measurement": "Docosahexaenoic acid (22:6n3) in heart cardiolipin", "setting": "[3]; treated mice, control 2,200 nmol/g", "value": 950, "unit": "nmol/g"},
      {"measurement": "linoleic acid (18:2n6) in heart cardiolipin", "setting": "[3]; treated mice, control 4,550 nmol/g", "value": "8,850 nmol/g"},
      {"measurement": "mean cardiolipin content of hearts", "setting": "[3]; treated mice, untreated 2,500 nmol/g", "value": "3,000 nmol/g"},
      {"measurement": "average concentration of total free fatty acids in the heart", "setting": "[3]; treated mice, untreated 5,100 nmol/g", "value": "2,500 nmol/g"},
      {"measurement": "heart free fatty acids of the saturated n-3, n-6, and n-9 families, lower than in untreated mice", "setting": "[3]; treated vs untreated mice, FIG. 7", "value": "approximately 50%"},
      {"measurement": "liver sphingomyelin concentration", "setting": "[4]; untreated 1,890 nmol/g", "value": "1,180 nmol/g"},
      {"measurement": "Total hepatic triacylglycerides", "setting": "[4]; untreated 81,300 nmol/g", "value": "150,400 nmol/g"},
      {"measurement": "docosahexaenoic acid in inguinal fat triacylglycerides, greater concentration than control", "setting": "[5]; [7]", "value": "7,000 nmol/g"},
      {"measurement": "eicosapentaenoic acid in inguinal fat triacylglycerides, greater concentration than control", "setting": "[5]; [7]", "value": "4,100 nmol/g"},
      {"measurement": "a-linolenic acid in inguinal fat triacylglycerides, more than control", "setting": "[5]; amount in parentheses after the % more", "value": "24,300 nmol/g"},
      {"measurement": "concentration of total n-3 fatty acids in the inguinal fat triacylglycerides", "setting": "[5]; treated mice", "value": "71,260 nmol/g"},
      {"measurement": "inguinal fat triacylglyceride content", "setting": "[5]; treated mice", "value": "9,628 μmol/g"},
      {"measurement": "inguinal fat free fatty acids", "setting": "[5]; treated mice, controls 9,900 nmol/g", "value": "13,370 nmol/g"},
      {"measurement": "concentration of n-7 fatty acids in inguinal fat triacylglycerides", "setting": "[5]; treated mice, untreated 204 μmol/g", "value": 303, "unit": "µmol/g"},
      {"measurement": "inguinal fat free fatty acids, more than controls", "setting": "[5]; treated vs control mice", "value": 35, "unit": "%"},
      {"measurement": "inguinal fat triacylglyceride content, lower than controls", "setting": "[5]; treated vs control mice", "value": 5.7, "unit": "%"},
      {"measurement": "a-linolenic acid in inguinal fat triacylglycerides, more than control", "setting": "[5]; [8]", "value": 84, "unit": "%"},
      {"measurement": "docosahexaenoic acid in inguinal fat triacylglycerides, greater concentration than control", "setting": "[5]; [8]", "value": 612, "unit": "%"},
      {"measurement": "eicosapentaenoic acid in inguinal fat triacylglycerides, greater concentration than control", "setting": "[5]; [8]", "value": 522, "unit": "%"},
      {"measurement": "total concentration of n-6 fatty acids in inguinal fat, higher than untreated", "setting": "[5]; treated vs untreated mice", "value": "less than 3%"},
      {"measurement": "total n-3 fatty acids in inguinal fat triacylglycerides, greater than in untreated mice", "setting": "[5]; treated vs untreated mice", "value": 120, "unit": "%"}
    ]},
    {"smiles": "C[C@H](Cc1ccc2c(c1)OC(C(=O)[O-])(C(=O)[O-])O2)NC[C@H](O)c1cccc(Cl)c1.[Na+].[Na+]", "note": "[CL316,243]", "values": [
      {"measurement": "similarity of effect on plasma lipids to rosiglitazone", "setting": "[6]; targeting graph FIG. 6, NZO mice, 0.001% in chow, four weeks", "value": "largely validated"},
      {"measurement": "increase in the de novo synthesis of fatty acids", "setting": "[6]; targeting graph FIG. 6, upper left quadrant metabolites (16:1n7, 18:1n7, 20:3n9)", "value": "not induced"}
    ]}
  ]
}
